Data on eight molecules can be found in PMC3677961 (Chemical biology & drug design, 2008).

Series [1] has as its system L. donovani axenic amastigotes. The class given is cell-based. The conditions noted are these: Leishmania donovani, read-out: IC50 versus L. donovani axenic amastigotes.
The next series deals with mammalian tubulin. The conditions noted are these: read-out: IC50 against mammalian tubulin; cited from earlier work.
For series [2], the target named is T1, colchicine site of mammalian tubulin (Sus scrofa, UniProt P02550+P02554). Nature of the series: Competition with MTPT for the colchicine site. Format: binding. The conditions noted are these: 5 μM mammalian tubulin, 5 μM MTPT.
The test system of the next series is HT29. The experiment in a line: SRB growth inhibition assay, HT-29 colon cancer cell line. The class given is cell-based. The settings on record: Homo sapiens, HT-29, 96 h, read-out: Cancer cell line IC50, HT29.
The next series has as its system LNCaP. Nature of the series: SRB growth inhibition assay, LNCaP prostate cancer cell line. The class given is cell-based. The conditions noted are these: Homo sapiens, 96 h, read-out: Cancer cell line IC50, LNCaP.
The next series has as its system PPC1. The experiment in a line: SRB growth inhibition assay, PPC-1 prostate cancer cell line. The class given is cell-based. The settings on record: Homo sapiens, PPC-1, 96 h, read-out: Cancer cell line IC50, PPC1.
A further series relates to PC3. The experiment in a line: SRB growth inhibition assay, PC-3 prostate cancer cell line. The class given is cell-based. The settings on record: Homo sapiens, PC-3, 96 h, read-out: Cancer cell line IC50, PC3.
A further series deals with MCF7. Nature of the series: SRB growth inhibition assay, MCF-7 breast cancer cell line. The class given is cell-based. The conditions noted are these: Homo sapiens, MCF7, 96 h, read-out: Cancer cell line IC50, MCF7.
For another series, the system named is TSU-Pr1. Nature of the series: SRB growth inhibition assay, TSU-Pr1 bladder cancer cell line. The conditions noted are these: Homo sapiens, TSU-Pr1, 96 h, read-out: Cancer cell line IC50, TSU-Pr1. The class given is cell-based.
Another series has as its system Vero cells. The experiment in a line: Vero cell cytotoxicity. The class given is cell-based, African green monkey. The conditions noted are these: Chlorocebus sabaeus, read-out: IC50 versus Vero Cells.
Series [3] has as its target T1, colchicine site of mammalian tubulin. The settings on record: cited from earlier work.
The conditions of series [4]: cited from earlier work.
For series [5], the system named is L. donovani axenic amastigotes. The conditions noted are these: cited from earlier work.
The next series concerns T. b. brucei. The settings on record: cited from earlier work.
The conditions of series [6]: phase I and phase II clinical trials; cited from earlier work.

Turning to `N=C(N)c1ccc(OCCCCCOc2ccc(C(=N)N)cc2)cc1` [Pentamidine], in [1], the concentration for half-maximal inhibition (IC50) was determined as 3200 ± 1500 nM.
`COc1ccc(NS(=O)(=O)c2c(F)c(F)c(F)c(F)c2F)cc1NC(N)=O` [Compound 30]: in the series on mammalian tubulin, the half-maximal inhibitory concentration (IC50) was 2100 nM.
`COc1ccc(CCc2cc(OC)c(OC)c(OC)c2)cc1O` [Dihydrocombetastatin A4, dihydrocombretastatin A4]: the figures for the “Inhibition (%) of MTPT binding in presence of competitors” value in [2] (2 μM competitor), in [2] (20 μM competitor) and in series [2] (50 μM competitor) were 30 ± 1%, 69 ± 2% and 74 ± 2%, respectively.
On to `CC[C@]1(O)C[C@@H]2CN(CCc3c([nH]c4ccccc34)[C@@](C(=O)OC)(c3cc4c(cc3OC)N(C)[C@H]3[C@@](O)(C(=O)OC)[C@H](OC(C)=O)[C@]5(CC)C=CCN6CC[C@]43[C@@H]65)C2)C1` [Vinblastine], for which the 50% inhibitory concentration (IC50) in the series with HT29 amounted to 2.4 ± 0.2 nM; in the series on LNCaP it was 3.4 ± 0.9 nM; with PPC1, 1 ± 0.4 nM; with PC3, 1.4 ± 0.3 nM; in the series with MCF7, 1.3 ± 0.4 nM; with TSU-Pr1, 1.6 ± 0.08 nM.
For `COc1cc([C@@H]2c3cc4c(cc3[C@H](O)[C@H]3COC(=O)[C@H]23)OCO4)cc(OC)c1OC` [Podophyllotoxin], in the series on Vero cells, the IC50 turned out to be 50 ± 30 nM.
Take `COc1ccc(NS(=O)(=O)c2c(F)c(F)c(F)c(F)c2F)cc1F` [Compound 29]: in the series on mammalian tubulin, the IC50 is approximately 2000 nM. In [3], the “Binding site on mammalian tubulin” value is listed as “bind to the colchicine site”. For the same molecule, the “Toxicity in phase II clinical trials” value in series [4] is reported as “low levels of toxicity”.
As to `CCCN(CCC)c1c([N+](=O)[O-])cc(S(=O)(=O)Nc2ccccc2)cc1[N+](=O)[O-]` [Compound 2, N1-phenyl-3,5-dinitro-N4,N4-di-n-propylsulfanilamide], in series [5], the “Activity against Leishmania donovani axenic amastigotes (in words)” value is recorded as “low micromolar activity”. The “Activity against Trypanosoma brucei bloodstream forms (in words)” value in the series with T. b. brucei is on record as “mid-nanomolar activity”.
For `COc1ccc(S(=O)(=O)Nc2cccnc2Nc2ccc(O)cc2)cc1` [Compound 28], the 50% inhibitory concentration (IC50) with mammalian tubulin is 2200 nM. Besides, in [3], the “Binding site on mammalian tubulin” value is recorded as “bind to the colchicine site”. Besides, in series [6], the Oral bioavailability result is listed as “orally bioavailable”.
